Experimental findings from ChEMBL document CHEMBL3988442, “University of Dundee, Small-Polar-MMV Screening Library” (2021) are described below.

Several values for one entry are separate records, joined by “and”; a condition that tells them apart may be missing. Equal entries are not always repeated. Some results are limits rather than exact numbers.

One test has as its target Tryptophan--tRNA ligase (Mycobacterium tuberculosis (strain ATCC 25618 / H37Rv), UniProt P9WFT3). Put plainly: Biochemical assay for Mt-TrpRS. It is filed as functional.
Test [1] can be described thus: In vitro enzyme assay to detect hydrolysis of chlorophenol red-beta-D-[…] directly proportional to the number of Toxoplasma stably expressing beta-galactosidase. The class given is functional, organism-based, Toxoplasma gondii. Conditions: for IC50: Toxoplasma gondii.
The next test has as its target ClpP1P2 (Mycobacterium tuberculosis (strain ATCC 25618 / H37Rv), UniProt P9WPC3+P9WPC5). The experiment in a line: in vitro assay to detect presence of AMC directly proportional to the activity of ClpP1P2. GHDDI collaboration. The class given is functional.
Another test concerns Plasmodium falciparum. The experiment in a line: Calibr Malaria Delayed Death Assay SOP. The class given is functional, organism-based. Particulars: for IC50: Plasmodium falciparum.
The next test deals with Schistosoma mansoni. The experiment in a line: High throughput screening of compounds against Schistosoma mansoni motility. It is filed as functional. The arrangement: dose or concentration left out as unconfirmed.
A short description of test [2]: microbe, parasite or virus in culture. Conditions: Mycobacterium tuberculosis, 72 h, read-out: pIC50 (converted).
A short description of test [3]: microbe, parasite or virus in culture. Particulars: Mycobacterium tuberculosis, 96 h, read-out: pIC50 (converted).

Chain of Tryptophan--tRNA ligase (P9WFT3 whole entry): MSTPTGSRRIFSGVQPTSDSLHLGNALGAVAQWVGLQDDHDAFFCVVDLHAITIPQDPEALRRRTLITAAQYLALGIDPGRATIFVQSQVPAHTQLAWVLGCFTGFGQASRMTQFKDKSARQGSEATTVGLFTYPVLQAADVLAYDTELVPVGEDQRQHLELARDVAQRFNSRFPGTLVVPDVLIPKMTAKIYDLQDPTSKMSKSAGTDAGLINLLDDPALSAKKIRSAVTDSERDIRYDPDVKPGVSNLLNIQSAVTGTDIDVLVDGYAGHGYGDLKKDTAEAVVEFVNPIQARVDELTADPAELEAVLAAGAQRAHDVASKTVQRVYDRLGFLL
Chain of ClpP1P2 (P9WPC5 whole entry): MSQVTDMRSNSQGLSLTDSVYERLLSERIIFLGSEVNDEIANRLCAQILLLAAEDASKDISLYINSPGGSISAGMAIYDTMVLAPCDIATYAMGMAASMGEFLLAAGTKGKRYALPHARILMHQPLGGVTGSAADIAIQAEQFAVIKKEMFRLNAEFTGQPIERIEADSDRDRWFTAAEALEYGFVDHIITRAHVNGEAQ
Chain of ClpP1P2 (P9WPC3 whole entry): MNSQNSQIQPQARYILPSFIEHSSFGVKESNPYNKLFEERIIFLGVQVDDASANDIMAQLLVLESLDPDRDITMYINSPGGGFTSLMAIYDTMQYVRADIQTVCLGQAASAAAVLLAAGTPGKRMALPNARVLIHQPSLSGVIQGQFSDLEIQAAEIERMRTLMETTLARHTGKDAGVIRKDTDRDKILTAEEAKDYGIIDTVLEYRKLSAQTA

`c1ccc(OCC2C[C@@H]3[C@@H](C2)OCCN3Cc2ccoc2)nc1` (some centres not stated) had an IC50 against Tryptophan--tRNA ligase of over 195 µM.
For the molecule `Cc1c(C(=O)N2CCC(O)(CN(C)C)C2)c2ccccc2n1C` (configuration not stated), the IC50 on Tryptophan--tRNA ligase is over 195 µM.
At Tryptophan--tRNA ligase, `NC(=O)C1(CCCc2ccccn2)CCCN(CCO)C1` (configuration not stated) showed an IC50 of over 195 µM.
Same read-out and setting: under `NCc1cnn(-c2ccccc2C(=O)NCCc2ccccn2)c1` stands over 195 µM; under `O=C(c1ccccc1)N1CCO[C@@H]2CN(Cc3ccc[nH]3)C[C@@H]2C1`, over 195 µM.
The molecule `CCc1ccc(C(=O)N2CCC(c3nncn3CC)CC2)s1` had an IC50 at Tryptophan--tRNA ligase of over 195 µM.
In the case of `Cn1ccc(C(=O)N2CCC(Cc3cnc4[nH]ccc4c3)C2)n1` (configuration not stated), the IC50 against Tryptophan--tRNA ligase is over 195 µM.
For the molecule `CNCc1cc(F)ccc1Oc1ccc(F)cc1`, the IC50 on Tryptophan--tRNA ligase is over 195 µM.
In test [1], `CCNCc1ccc(OCc2ccc3c(c2)OCCO3)cc1.Cl` gave a negative-log IC50 (pIC50) of 4.872 and an IC50 of 8.2 µM. Moreover, the IC50 on ClpP1P2 was over 100 µM.
`CCCNc1cc(-c2c[nH]nc2C2CCN(C(=O)C3CCC3)C2)ccn1` (configuration not stated) showed an IC50 in test [1] of 0.368 µM. In the test with Plasmodium falciparum, this molecule showed a pIC50 of 6.573 and an IC50 of 0.237 µM.
As for `CNc1oc(-c2ccc(S(=O)(=O)N(C)C)o2)nc1C#N`, the figures for the IC50 (in test [1]; at ClpP1P2) were over 50.1 µM and over 100 µM, respectively.
`CC(C)Nc1cc(-c2c[nH]nc2C2CCN(C(=O)C3CC3)C2)ccn1` (configuration not stated) had an IC50 in test [1] of 0.423 µM. In the test on Plasmodium falciparum, this molecule gave a pIC50 of 6.541 and an IC50 of 0.269 µM.
For `O=S(=O)(NCC1(O)CCOc2ccccc21)c1ccc(Br)s1` (configuration not stated), the IC50 in test [1] was 7.49 µM. The “Percent Effect” value in the test on Schistosoma mansoni is given as -11.19%.
For the molecule `Cc1cc(NC(=O)C(C)C)n(-c2nc(C)c(C)c(=O)[nH]2)n1`, the IC50 was 4.11 µM in test [2], 1.51 µM in test [1] and 9.46 µM in test [3]. This molecule also returned a pIC50 in test [1] of 5.713.
Take `CC(C)(N)CN1CCN(c2cccc(Cl)c2)CC1`: the values for the IC50 in test [2], in test [1] and in test [3] were 98.6 µM, over 50.1 µM and 474 µM, respectively.
Regarding `COC(=O)c1[nH]cc(-c2ccccc2)c1N`, the IC50 in test [2] is 196 µM; in test [1], over 50.1 µM; in test [3], 172 µM.
On the same counts, the results for `COc1ccc(CCN)c(OC)c1` are 46.8 µM, over 50.1 µM and 91.2 µM.
As to `Clc1cccc(-c2cccc(N3CCC(NC4CCOCC4)CC3)c2)c1`, the IC50 in test [2] is 29.7 µM; in test [1], 14.4 µM; in test [3] it was 34.9 µM.
`CC(C)(C)c1cn2c(n1)C(CNCc1ccccn1)CCC2` (configuration not stated): the IC50 in test [1] is 2.04 µM; with Plasmodium falciparum it was 0.881 µM. This molecule yielded a pIC50 in the test with Plasmodium falciparum of 6.014.
Turning to `CC(C)Sc1ccccc1NS(=O)(=O)N(C)C`, the IC50 in test [2] is 173 µM; in test [1], over 50.1 µM; in test [3], 252 µM.
`Nc1n[nH]c(SCc2ccc3c(c2)OCCO3)n1`: the IC50 in test [2] was over 501 µM; in test [1], over 50.1 µM; in test [3], over 501 µM.
For the molecule `COc1ncccc1-c1csc(NCCSC)n1`, the IC50 is 101 µM in test [2], over 50.1 µM in test [1] and 284 µM in test [3].
In test [1], `Cc1ccc(C(CCNCCCN(C)C)C2CCOC(C)(C)C2)cc1.O=C(O)C(=O)O` (configuration not stated) showed a pIC50 of 5.301 and an IC50 of 5.38 µM. Besides, in the test with Plasmodium falciparum, the pIC50 was 6.22 and the IC50 is 0.659 µM.
Regarding `CC(C)Nc1cc(-c2c[nH]nc2C2CCN(C(=O)C3CCC3)C2)ccn1` (configuration not stated), the IC50 in test [1] was 0.526 µM. In the test on Plasmodium falciparum, this molecule showed a pIC50 of 6.647 and an IC50 of 0.209 µM.
For `CCc1nccn1CCNC1CCN(c2nc3ccc(Cl)cc3s2)CC1`, the figures for the IC50 in test [2], in test [1] and in test [3] were 34 µM, 8.99 µM and 18.4 µM, respectively.
On the same counts, the results for `NCc1cccc(-c2ccccn2)n1` are 109 µM, 12.4 µM and 97.6 µM.
For the molecule `COc1cccc(N2CCNCC2C)c1` (configuration not stated), the IC50 in test [2] is over 501 µM; in test [1], over 50.1 µM; in test [3] it was over 501 µM.
In the case of `CCCc1nc(NCCc2ccccc2)c2c(n1)c(C)nn2CC`, the figures for the IC50 in test [2], in test [1] and in test [3] were 48.8 µM, 9.84 µM and 38.5 µM, respectively. For the same molecule, the pIC50 in test [1] is given as 4.958.
For `NCCC(=O)N1CCCC(CCc2ccc(F)cc2)C1` (configuration not stated), the IC50 in test [2] was 204 µM; in test [1], over 50.1 µM; in test [3], 479 µM.
Turning to `O=C(CN1CCC=C(F)C1)Nc1cccc(F)c1`, the IC50 in test [2] was 300 µM; in test [1], over 50.1 µM; in test [3] it was 278 µM.
For the molecule `C=C/C=c1\c(=C/C)oc2c(NCc3ccccc3)nc(CC)nc12`, the IC50 in test [2] is 22 µM; in test [1], 37.5 µM; in test [3], 19.1 µM.
For `O=C(CN1CCCC(c2ccn[nH]2)C1)Nc1nc2c(s1)CCC2` (configuration not stated), the IC50 was 0.766 µM in test [1] and 0.216 µM in the test with Plasmodium falciparum. Also, the negative-log IC50 (pIC50) in the test on Plasmodium falciparum is given as 6.713.
For `Nc1nc(N)nc(CN2CCCC2c2cccs2)n1` (configuration not stated), the results for the IC50 in test [2], in test [1] and in test [3] were 171 µM, over 50.1 µM and over 501 µM, respectively.
Regarding `CCCS(=O)(=O)NCC(O)C1CCCC1` (configuration not stated), the IC50 in test [2] is 294 µM; in test [1] it was over 50.1 µM; in test [3], 268 µM.
On the same counts, the results for `c1ccc(C2CNCCCO2)cc1` (configuration not stated) are 166 µM, over 50.1 µM and 306 µM.
Regarding `NCCc1ccc(-n2cccn2)cc1`, the figures for the IC50 in test [2], in test [1] and in test [3] were 188 µM, over 50.1 µM and 191 µM, respectively.
In the case of `COc1ccc(-c2ccccc2CCN)c(OC)c1OC`, the IC50 in test [2] is 43.4 µM; in test [1] it was 3.52 µM; in the test with Plasmodium falciparum it was 0.762 µM; in test [3] it was 25.1 µM. In the test with Plasmodium falciparum, the pIC50 was 6.053.
Take `CCn1cc(CN(C)S(=O)(=O)c2ccc(C(C)C)cc2)cn1`: the IC50 was 46.8 µM in test [2], over 50.1 µM in test [1] and 48.5 µM in test [3].
Turning to `Cc1cc(C)n(-c2nc(NCCCO)c3c4c(sc3n2)CCCC4)n1`, the IC50 in test [2] is 45.4 µM; in test [3], 41.8 µM. Further, the pIC50 in test [1] was 5.989 and 5.533.
On to `NC(=O)CCc1ccc(Cl)s1`, for which the IC50 in test [2] was over 501 µM; in test [1] it was over 50.1 µM; in test [3], 160 µM.
On to `c1ccc(COCCc2noc(C3CNC3)n2)cc1`, for which the results for the IC50 in test [2], in test [1] and in test [3] were 222 µM, 24.9 µM and 270 µM, respectively.
Molecule `CC(C)CNc1cc(-c2c[nH]nc2C2CCN(C(=O)C3CC3)C2)ccn1` (configuration not stated) had an IC50 in test [1] of 0.274 µM. Besides, in the test on Plasmodium falciparum, the pIC50 turned out to be 6.615 and the IC50 is 0.233 µM.
Take `CCn1nc(C)c2nc(C(C)C)nc(NCC(C)C)c21`: the IC50 in test [2] was 47.1 µM; in test [1], 25.4 µM; in test [3] it was 49.2 µM.
Regarding `Cc1ccc(F)cc1S(=O)(=O)N1C[C@H](C2CC2)[C@@H](N)C1`, the IC50 in test [2] was 259 µM; in test [1] it was over 50.1 µM; in test [3] it was over 501 µM.
In the case of `C1CCC(COCCc2noc(C3CNC3)n2)C1`, the IC50 was 96.5 µM in test [2], 19.5 µM in test [1] and over 501 µM in test [3].
On the same counts, the results for `NCC(O)c1ccc(-c2ccccc2)cc1` (configuration not stated) are 104 µM, over 25.1 µM and 97.4 µM.
On the same counts, the results for `NC(CC1CCCC1)c1ccc(Oc2ccccc2)cc1` (configuration not stated) are 27.4 µM, 5.29 µM and 24.2 µM.
On the same counts, the results for `COCCNc1nnc(SCc2ccc(Br)cn2)s1` are 276 µM, over 50.1 µM and over 501 µM.
With `Cc1cc(C2CCCN(CC(=O)Nc3nc4c(s3)CCC4)C2)n[nH]1` (configuration not stated), the IC50 is 37.8 µM in test [2], 0.781 µM in test [1], 0.185 µM with Plasmodium falciparum and 47.2 µM in test [3]. The molecule also had a negative logarithm of the IC50 (pIC50) with Plasmodium falciparum of 6.771.
`Nc1nnc(SCc2ccc(Cl)s2)[nH]1`: the IC50 is 307 µM in test [2], over 50.1 µM in test [1] and 313 µM in test [3].
Take `OCc1cc2ccccc2nc1N1CCSCC1`: the IC50 was 238 µM in test [2], over 50.1 µM in test [1] and 282 µM in test [3].
As to `Cc1cc(C(=O)N2CCN(c3nc4c(C(C)C)cccc4s3)CC2)on1`, the values for the IC50 in test [2], in test [1] and in test [3] were 21.3 µM, over 25.1 µM and 38.5 µM, respectively.
On the same counts, the results for `Brc1ccc(N2CCNCC2)nc1` are 185 µM, over 50.1 µM and over 501 µM.
As for `COc1ccc(S(=O)(=O)N(C)C)cc1NCC1CC1`, the IC50 is 299 µM in test [2], over 50.1 µM in test [1] and over 501 µM in test [3].
On the same counts, the results for `OCCNCCNCc1ccc(-c2cccc(Cl)c2)o1` are 84.4 µM, over 25.1 µM and 253 µM.
On the same counts, the results for `CCOC(=O)C(O)c1cc(Br)c2c(c1)OCO2` (configuration not stated) are 223 µM, over 50.1 µM and over 501 µM.
On the same counts, the results for `NCCC1CSc2ccccc2O1` (configuration not stated) are 129 µM, over 50.1 µM and 170 µM.
`CCCn1ncc(-c2ccnc(NC3CC(C)(C)NC(C)(C)C3)n2)c1C` showed an IC50 in test [1] of 9.87 µM. In the test on Plasmodium falciparum, this molecule had a pIC50 of 6.559 and an IC50 of 0.23 µM.
In turn, `CCOC(=O)C1(Cc2ccccc2-c2ccccc2OC)CCNCC1.Cl` gave an IC50 in test [1] of 13.2 µM. In the test with Plasmodium falciparum, this molecule showed a pIC50 of 6.391 and an IC50 of 0.369 µM.
As to `NCCNC(=O)c1ccc(-c2ccc(Cl)cc2)s1`, the IC50 was 67.3 µM in test [2], over 25.1 µM in test [1] and 103 µM in test [3].
Turning to `C(Cc1noc(C2CNC2)n1)OCC1CC1`, the IC50 in test [2] is 136 µM; in test [1], 24.8 µM; in test [3], 352 µM.

For orientation: pIC50 means −log10 of the IC50, conventionally taken in molar units.
